From US11267824B2, “Inhibitors of indoleamine 2,3-dioxygenase and/or tryptophan 2,3-dioxygenase” (IDORSIA PHARMACEUTICALS LTD, priority 2017, dated 2022)

Assays:
[1] = target: Recombinant full-length human IDO1 (Homo sapiens (Human), UniProt P14902); assay: IDO1 enzymatic assay (IDO inhibitory activity); format: biochemical; details: 2 nM enzyme, 5 μM L-tryptophan, pH6.5, 30 min pre-incubation, NFK quantified by LCMS; mean values if measured multiple times; read-out: hIDO activity (IC50 in nM)
In short: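 N-His-tagged enzyme from E. coli at 2 nM in 37.5 mM phosphate pH6.5 with ascorbate, methylene blue, catalase; compounds 10 μM–0.5 nM, 0.6% DMSO, pre-incubated 30 min RT, then 5 μM L-tryptophan for 30 min RT. NFK quantified by LCMS against d5-tryptophan; IC50 from duplicate four-parameter fit, means where repeated.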

[2] = target: Recombinant human TDO comprising amino acids 19-407 (Homo sapiens (Human), UniProt P48775); assay: TDO2 enzymatic assay (TDO inhibitory activity); format: biochemical; details: 15 nM enzyme, 200 μM L-tryptophan, pH7, 30 min pre-incubation, NFK quantified by LCMS; mean values if measured multiple times; read-out: hTDO activity (IC50 in nM)
In short: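 His-tagged enzyme (15 nM, E. coli-expressed) in pH 7 phosphate buffer with ascorbate, catalase, BSA, Tween 20, 0.6% DMSO; 30 min RT pre-incubation with compound (10 μM–0.5 nM), then 200 μM L-tryptophan for 30 min RT. N′-formylkynurenine quantified by LCMS against deuterated tryptophan; IC50 by four-parameter fit, duplicates.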

Sequence of Recombinant full-length human IDO1 (P14902 whole entry): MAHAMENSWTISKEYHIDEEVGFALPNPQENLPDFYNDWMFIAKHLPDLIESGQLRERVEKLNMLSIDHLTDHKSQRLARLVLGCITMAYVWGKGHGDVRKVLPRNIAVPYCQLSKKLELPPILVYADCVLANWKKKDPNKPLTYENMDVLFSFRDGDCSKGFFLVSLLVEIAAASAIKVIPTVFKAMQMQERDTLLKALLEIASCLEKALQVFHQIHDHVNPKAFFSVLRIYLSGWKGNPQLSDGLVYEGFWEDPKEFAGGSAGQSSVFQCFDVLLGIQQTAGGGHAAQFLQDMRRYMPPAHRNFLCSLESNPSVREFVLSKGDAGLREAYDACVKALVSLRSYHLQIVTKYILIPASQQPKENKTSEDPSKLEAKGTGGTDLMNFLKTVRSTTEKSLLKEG
Sequence of Recombinant human TDO comprising amino acids 19-407 (P48775 19-406 limits assumed): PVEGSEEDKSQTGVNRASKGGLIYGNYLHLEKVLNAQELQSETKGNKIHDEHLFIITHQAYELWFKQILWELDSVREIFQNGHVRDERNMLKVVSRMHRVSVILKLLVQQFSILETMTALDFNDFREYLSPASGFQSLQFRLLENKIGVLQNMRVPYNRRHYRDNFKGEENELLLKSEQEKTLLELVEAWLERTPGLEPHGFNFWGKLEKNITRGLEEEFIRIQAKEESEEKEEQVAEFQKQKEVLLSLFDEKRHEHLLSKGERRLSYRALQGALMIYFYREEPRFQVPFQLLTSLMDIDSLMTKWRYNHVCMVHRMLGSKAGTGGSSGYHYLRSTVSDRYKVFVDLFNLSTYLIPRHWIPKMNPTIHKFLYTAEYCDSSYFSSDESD

Compound	IC50 [1] [nM]	IC50 [2] [nM]
OC(CC1CCCCC1c1ccccc1)c1c(C2CC2)sc2cncn12 (stereo not shown) [Example 75, 1-(2-Cyclopropyl-imidazo[5,1-b]thiazol-3-yl)-2-(2-phenyl-cyclohexyl)-ethanol]	1040	9460
CC1(C)CCCCC1CC(O)c1c(C2CC2)sc2cncn12 (stereo not shown) [Example 76, 1-(2-Cycclopropyl-imidazo[5,1-b]thiazol-3-yl)-2-(2,2-dimethyl-cyclohexyl)-ethanol]	147	295
COC1CCCC(C(O)c2c(C3CC3)sc3cncn23)C1 (stereo not shown) [Example 79, (2-Cyclopropyl-imidazo[5,1-b]thiazol-3-yl)-(3-methoxy-cyclohexyl)-methanol]	109	1850
OC(c1c(C2CC2)sc2cncn12)C1CCCC1c1ccccc1 (stereo not shown) [Example 83, (2-Cyclopropyl-imidazo[5,1-b]thiazol-3-yl)-(2-phenyl-cyclopentyl)-methanol]	296	5200
OC(CC1CCCC2CCCCC21)c1c(C2CC2)sc2cncn12 (stereo not shown) [Example 89, 1-(2-Cyclopropyl-imidazo[5,1-b]thiazol-3-yl)-2-(decahydro-naphthalen-1-yl)-ethanol]	528	2130
OC(c1c(C2CC2)sc2cncn12)C1CCC2CCCCC2C1 (stereo not shown) [Example 90, (2-Cyclopropyl-imidazo[5,1-b]thiazol-3-yl)-(decahydro-naphthalen-2-yl)-methanol]	133	1080
OC(c1c(C2CC2)sc2cncn12)C1CCCC1Cc1ccccc1 (stereo not shown) [Example 91, (2-Benzyl-cyclopentyl)-(2-cyclopropyl-imidazo[5,1-b]thiazol-3-yl)-methanol]	288	1640
O[C@H](c1c(-c2ccccc2)sc2cncn12)C1CCCCC1 [Example 92a, (S)-Cyclohexyl-(2-phenyl-imidazo[5,1-b]thiazol-3-yl)-methanol]	242	171
CCc1sc2cncn2c1[C@H](O)CC1CCCCC1 [Example 100b, (R)-2-Cyclohexyl-1-(2-ethyl-imidazo[5,1-b]thiazol-3-yl)-ethanol]	1190	9950
OC(CC1CCC2CCCCC2C1)c1c(C2CC2)sc2cncn12 (stereo not shown) [Example 101, 1-(2-Cyclopropyl-imidazo[5,1-b]thiazol-3-yl)-2-(decahydro-naphthalen-2-yl)-ethanol]	485	1790
Cc1sc2cncn2c1C(O)CC1CCC(c2ccccc2)C1 (stereo not shown) [Example 107, 1-(2-Methyl-imidazo[5,1-b]thiazol-3-yl)-2-(3-phenyl-cyclopentyl)-ethanol]	167	1890
OC(CC1CCC(c2ccccc2)C1)c1c(C(F)(F)F)sc2cncn12 (stereo not shown) [Example 112, 2-(3-Phenyl-cyclopentyl)-1-(2-trifluoromethyl-imidazo[5,1-b]thiazol-3-yl)-ethanol]	666	> 10200
CC1CCCCC1CC(O)c1c(C(F)(F)F)sc2cncn12 (stereo not shown) [Example 117, 2-(2-Methyl-cyclohexyl)-1-(2-trifluoromethyl-imidazo[5,1-b]thiazol-3-yl)-ethanol]	165	2680
CC1CCCC1C(O)c1c(C(F)(F)F)sc2cncn12 (stereo not shown) [Example 119, (2-Methyl-cyclopentyl)-(2-trifluoromethyl-imidazo[5,1-b]thiazol-3-yl)-methanol]	191	187
CC1CC(C)(C)CC1C(O)c1c(C2CC2)sc2cncn12 (stereo not shown) [Example 120, (2-Cyclopropyl-imidazo[5,1-b]thiazol-3-yl)-(2,4,4-trimethyl-cyclopentyl)-methanol]	172	247
CC1(C)CCC(CC(O)c2c(C(F)(F)F)sc3cncn23)C1 (stereo not shown) [Example 121, 2-(3,3-Dimethyl-cyclopentyl)-1-(2-trifluoromethyl-imidazo[5,1-b]thiazol-3-yl)-ethanol]	313	8490
CC1CCCC(CC(O)c2c(C(F)(F)F)sc3cncn23)C1 (stereo not shown) [Example 122, 2-(3-Methyl-cyclohexyl)-1-(2-trifluoromethyl-imidazo[5,1-b]thiazol-3-yl)-ethanol]	205	3810
OC(CC1CCCC1c1ccccc1)c1c(C2CC2)sc2cncn12 (stereo not shown) [Example 135, 1-(2-Cyclopropyl-imidazo[5,1-b]thiazol-3-yl)-2-(2-phenyl-cyclopentyl)-ethanol]	139	3770

The next molecules have a lower IC50 [1] than those just listed; values first:

IC50 [1] [nM]	IC50 [2] [nM]	Compound
4.63	11.6	C=Cc1sc2cncn2c1[C@@H](O)C1CCCCC1 [Example 68a, (S)-Cyclohexyl-(2-vinyl-imidazo[5,1-b]thiazol-3-yl)-methanol]
40	255	CC1(C)CCCC(C(O)c2c(C3CC3)sc3cncn23)C1 (stereo not shown) [Example 69, (2-Cyclopropyl-imidazo[5,1-b]thiazol-3-yl)-(3,3-dimethyl-cyclohexyl)-methanol]
6.45	2300	O[C@H](c1c(C2CC2)sc2cncn12)[C@H]1CC[C@H](c2ccccc2)CC1 [Example 73a, (S)-(2-Cyclopropyl-imidazo[5,1-b]thiazol-3-yl)-(trans-4-phenyl-cyclohexyl)-methanol]
91.2	3900	OC(c1c(C2CC2)sc2cncn12)C1CCC(Cc2ccccc2)C1 (stereo not shown) [Example 77, (3-Benzyl-cyclopentyl)-(2-cyclopropyl-imidazo[5,1-b]thiazol-3-yl)-methanol]
72.3	2010	CC(C)CC1CCC(C(O)c2c(C3CC3)sc3cncn23)C1 (stereo not shown) [Example 78, (2-Cyclopropyl-imidazo[5,1-b]thiazol-3-yl)-(3-isobutyl-cyclopentyl)-methanol]
34.2	1810	OC(c1c(C2CC2)sc2cncn12)C1CCc2ccccc2C1 (stereo not shown) [Example 80, (2-Cyclopropyl-imidazo[5,1-b]thiazol-3-yl)-(1,2,3,4-tetrahydro-naphthalen-2-yl)-methanol]
87.3	822	CC(C1CCCCC1)C(O)c1c(C2CC2)sc2cncn12 (stereo not shown) [Example 82, 2-Cyclohexyl-1-(2-cyclopropyl-imidazo[5,1-b]thiazol-3-yl)-propan-1-ol]
74	133	CC1(C)CCCC1C(O)c1c(C2CC2)sc2cncn12 (stereo not shown) [Example 84, (2-Cyclopropyl-imidazo[5,1-b]thiazol-3-yl)-(2,2-dimethyl-cyclopentyl)-methanol]
76.7	1280	CC1(c2ccccc2)CCC(C(O)c2c(C3CC3)sc3cncn23)C1 (stereo not shown) [Example 88, (2-Cyclopropyl-imidazo[5,1-b]thiazol-3-yl)-(3-methyl-3-phenyl-cyclopentyl)-methanol]
5.32	20	CCc1sc2cncn2c1[C@@H](O)C1CCCCC1 [Example 96a, (S)-Cyclohexyl-(2-ethyl-imidazo[5,1-b]thiazol-3-yl)-methanol]
10.5	62.6	C=Cc1sc2cncn2c1C(O)CC1CCCCC1 (stereo not shown) [Example 97, 2-Cyclohexyl-1-(2-vinyl-imidazo[5,1-b]thiazol-3-yl)-ethanol]
7.82	202	CCc1sc2cncn2c1[C@@H](O)CC1CCCCC1 [Example 100a, (S)-2-Cyclohexyl-1-(2-ethyl-imidazo[5,1-b]thiazol-3-yl)-ethanol]
87.6	818	OC(CC1CCCC(C(F)(F)F)C1)c1c(C2CC2)sc2cncn12 (stereo not shown) [Example 102, 1-(2-Cyclopropyl-imidazo[5,1-b]thiazol-3-yl)-2-(3-trifluoromethyl-cyclohexyl)-ethanol]
75.7	1080	OC(c1c(C2CC2)sc2cncn12)C1CCCC(C(F)(F)F)C1 (stereo not shown) [Example 104, (2-Cyclopropyl-imidazo[5,1-b]thiazol-3-yl)-(3-trifluoromethyl-cyclohexyl)-methanol]
85.1	546	CC1(C)CCCC(CC(O)c2c(C3CC3)sc3cncn23)C1 (stereo not shown) [Example 106, 1-(2-Cyclopropyl-imidazo[5,1-b]thiazol-3-yl)-2-(3,3-dimethyl-cyclohexyl)-ethanol]
56.7	922	CC1(C)CCC(C(O)c2c(C(F)(F)F)sc3cncn23)C1 (stereo not shown) [Example 108, (3,3-Dimethyl-cyclopentyl)-(2-trifluoromethyl-imidazo[5,1-b]thiazol-3-yl)-methanol]
40.5	1830	COC1CCCC(CC(O)c2c(C3CC3)sc3cncn23)C1 (stereo not shown) [Example 114, 1-(2-Cyclopropyl-imidazo[5,1-b]thiazol-3-yl)-2-(3-methoxy-cyclohexyl)-ethanol]
45.5	701	CC1CCC(C(O)c2c(C(F)(F)F)sc3cncn23)C1 (stereo not shown) [Example 116, (3-Methyl-cyclopentyl)-(2-trifluoromethyl-imidazo[5,1-b]thiazol-3-yl)-methanol]
29.4	228	CCC1CCCC1C(O)c1c(C2CC2)sc2cncn12 (stereo not shown) [Example 123, (2-Cyclopropyl-imidazo[5,1-b]thiazol-3-yl)-(2-ethyl-cyclopentyl)-methanol]
7.07	259	OC(c1c(C2CC2)sc2cncn12)C1CC2CCCC2C1 (stereo not shown) [Example 133, (2-Cyclopropyl-imidazo[5,1-b]thiazol-3-yl)-(octahydro-pentalen-2-yl)-methanol]
